“And” between values parts separate entries of the source, which are not always exact repeats. Equal values may be shown once. Where a name gives a salt, the structure may show the parent alone.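 These data come from cells grown in 96-well plates and exposed to compound for 48 hours at five concentrations. GI50: concentration for 50% inhibition of growth.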 The source made the active and inactive calls. Rule as the data show it: active = GI50 up to about 1.1 µM and inactive = higher.
How the values were obtained:
Test in all cases: growth of human tumour cells (NCI), 48 h
HOP-62 = tested on: HOP-62
SNB-78 = tested on: SNB-78
DLD-1 = tested on: DLD-1
OVCAR-3 = tested on: OVCAR-3
MOLT-4 = tested on: MOLT-4
HL-60 = tested on: HL-60
SW-620 = tested on: SW-620
M19-MEL = tested on: M19-MEL
SF-295 = tested on: SF-295
UACC-62 = tested on: UACC-62
RPMI-8226 = tested on: RPMI-8226
OVCAR-5 = tested on: OVCAR-5
SK-MEL-5 = tested on: SK-MEL-5
OVCAR-8 = tested on: OVCAR-8
HCT-116 = tested on: HCT-116
U-251 = tested on: U-251
SNB-19 = tested on: SNB-19
IGROV-1 = tested on: IGROV-1
NCI-H226 = tested on: NCI-H226
HCT-15 = tested on: HCT-15

Structure (SMILES) | GI50 (HOP-62) | GI50 (SNB-78) | GI50 (DLD-1) | GI50 (OVCAR-3) | GI50 (MOLT-4) | GI50 (HL-60) | GI50 (SW-620) | GI50 (M19-MEL) | GI50 (SF-295) | GI50 (UACC-62) | GI50 (RPMI-8226) | GI50 (OVCAR-5) | GI50 (SK-MEL-5) | GI50 (OVCAR-8) | GI50 (HCT-116) | GI50 (U-251) | GI50 (SNB-19) | GI50 (IGROV-1) | GI50 (NCI-H226) | GI50 (HCT-15)
Nc1ccc2cc3ccc(N)cc3nc2c1 [PROFLAVINE SULFATE] | 2.47 µM (inactive) and 2.21 µM (inactive) | 1.12 µM (active) | 0.771 µM (active) | 2.77 µM (inactive) and 1.51 µM (inactive) | 338 nM (active) and 284 nM (active) | 2.62 µM (inactive) and 1.67 µM (inactive) | 494 nM (active) and 397 nM (active) | 1.79 µM (inactive) | 2.45 µM (inactive) and 1.94 µM (inactive) | 1.56 µM (inactive) and 1.6 µM (inactive) | 1.58 µM (inactive) and 1.43 µM (inactive) | 3.05 µM (inactive) | 1.61 µM (inactive) and 1.38 µM (inactive) | 1.09 µM (active) and 995 nM (active) | 366 nM (active) and 405 nM (active) | – | – | – | – | –
O=C1c2ccccc2C(=O)c2c1ccc1c2N=C(c2ccc(F)cc2)CC(c2ccc(Cl)c(Cl)c2)N1 (centres undefined) | 22 µM (inactive) | 19.2 µM (inactive) | 12.9 µM (inactive) | – | 7.43 µM (inactive) | 3.94 µM (inactive) | 6.11 µM (inactive) | 17.2 µM (inactive) | 14.6 µM (inactive) | 12.1 µM (inactive) | 3.15 µM (inactive) | 14.7 µM (inactive) | 15.6 µM (inactive) | 13.4 µM (inactive) | 11.5 µM (inactive) | 12.1 µM (inactive) | 13.1 µM (inactive) | 10.3 µM (inactive) | 22.2 µM (inactive) | 5.81 µM
CC1OC(OC2C(OC(=O)[C@@H]3CC(C)(C)C[C@H]4C5=CC[C@@H]6[C@@]7(C)C[C@H](O)[C@H](OC8OC(CO)C(O)C(O)C8O)[C@@](C)(CO)[C@@H]7[C@H](O)C[C@@]6(C)[C@]5(C)CC[C@@]34C)OCC(O)C2O)C(O)C(O)C1O (some centres undefined) | > 7.5 µM (inactive) | – | – | > 7.5 µM (inactive) | > 7.5 µM (inactive) | > 7.5 µM (inactive) | > 7.5 µM (inactive) | – | > 7.5 µM (inactive) | > 7.5 µM (inactive) | – | > 7.5 µM (inactive) | > 7.5 µM (inactive) | > 7.5 µM (inactive) | > 7.5 µM (inactive) | > 7.5 µM (inactive) | > 7.5 µM (inactive) | > 7.5 µM (inactive) | > 7.5 µM (inactive) | > 7.5 µM
C=CC(OCC)(OCC)OCC | > 100 µM (inactive) | > 100 µM (inactive) | 35.2 µM (inactive) | > 100 µM (inactive) | > 100 µM (inactive) | > 100 µM (inactive) | – | > 100 µM (inactive) | > 100 µM (inactive) | > 100 µM (inactive) | 61.1 µM (inactive) | > 100 µM (inactive) | > 100 µM (inactive) | > 100 µM (inactive) | 20.6 µM (inactive) | > 100 µM (inactive) | > 100 µM (inactive) | > 100 µM (inactive) | > 100 µM (inactive) | 53.1 µM
CCOC(=O)CNC(=O)N(CC)C12CC3CC(CC(C3)C1)C2 | 128 µM (inactive) | 166 µM (inactive) | 34.7 µM (inactive) | 114 µM (inactive) | 119 µM (inactive) | 107 µM (inactive) | 145 µM (inactive) | 153 µM (inactive) | 136 µM (inactive) | 97.5 µM (inactive) | 115 µM (inactive) | 161 µM (inactive) | 104 µM (inactive) | 150 µM (inactive) | 121 µM (inactive) | 119 µM (inactive) | 153 µM (inactive) | 184 µM (inactive) | 146 µM (inactive) | 115 µM
O=C(O)CN1CCCC(Cc2c[nH]c3ccccc23)C1 (centres undefined) | > 100 µM (inactive) | – | – | > 100 µM (inactive) | – | – | > 100 µM (inactive) | – | > 100 µM (inactive) | > 100 µM (inactive) | – | > 100 µM (inactive) | > 100 µM (inactive) | > 100 µM (inactive) | – | – | – | > 100 µM (inactive) | > 100 µM (inactive) | > 100 µM
NC(=O)Nc1cc(O)ccc1/N=N/c1ccc(S(=O)(=O)Nc2ccccn2)cc1 | > 100 µM (inactive) | > 100 µM (inactive) | – | > 100 µM (inactive) | 5.9 µM (inactive) | > 100 µM (inactive) | > 100 µM (inactive) | > 100 µM (inactive) | > 100 µM (inactive) | > 100 µM (inactive) | > 100 µM (inactive) | > 100 µM (inactive) | > 100 µM (inactive) | > 100 µM (inactive) | > 100 µM (inactive) | > 100 µM (inactive) | > 100 µM (inactive) | > 100 µM (inactive) | – | > 100 µM
O=C1c2cccc3cc4ccccc4c(c23)C(=O)N1CCNCCN1C(=O)c2cccc3cc4ccccc4c(c23)C1=O | 1.04 µM (active) | 0.518 µM (active) | 0.714 µM (active) | 0.484 µM (active) | 0.097 µM (active) | 0.178 µM (active) | 0.238 µM (active) | 0.508 µM (active) | 0.243 µM (active) | 0.318 µM (active) | 0.718 µM (active) | 0.406 µM (active) | 0.504 µM (active) | 0.357 µM (active) | 0.415 µM (active) | 0.282 µM (active) | 0.39 µM (active) | 0.589 µM (active) | 2.21 µM (inactive) | 0.309 µM
COC(=O)C1=CC[C@@H]2C(C(=O)O)=CO[C@@H](OC3OC(CO)C(O)C(O)C3O)[C@H]12 (some centres undefined) | > 300 µM (inactive) | > 142 µM (inactive) | > 189 µM (inactive) | > 300 µM (inactive) | > 300 µM (inactive) | > 300 µM (inactive) | > 300 µM (inactive) | > 300 µM (inactive) | > 150 µM (inactive) | > 300 µM (inactive) | > 300 µM (inactive) | > 300 µM (inactive) | > 151 µM (inactive) | > 300 µM (inactive) | > 300 µM (inactive) | > 300 µM (inactive) | > 300 µM (inactive) | > 300 µM (inactive) | 299 µM (inactive) | > 300 µM
COc1cc(OC)c(SSCCCCS(=O)O)c(OC)c1 | 26.2 µM (inactive) | 12.1 µM (inactive) | 17.5 µM (inactive) | 15.1 µM (inactive) | 6.78 µM (inactive) | 3.91 µM (inactive) | 13.9 µM (inactive) | 7.52 µM (inactive) | 13.6 µM (inactive) | 13.7 µM (inactive) | – | 16.6 µM (inactive) | 10.4 µM (inactive) | 16 µM (inactive) | 16.3 µM (inactive) | 14.5 µM (inactive) | 17.5 µM (inactive) | 21 µM (inactive) | – | 16.6 µM
COc1ccc(/C=C2\Oc3cc(OC(C)=O)ccc3C2=O)cc1 | > 100 µM (inactive) | – | – | > 100 µM (inactive) | > 100 µM (inactive) | 94 µM (inactive) | > 100 µM (inactive) | – | > 100 µM (inactive) | > 100 µM (inactive) | 57.3 µM (inactive) | – | > 100 µM (inactive) | > 100 µM (inactive) | > 100 µM (inactive) | > 100 µM (inactive) | > 100 µM (inactive) | > 100 µM (inactive) | > 100 µM (inactive) | 94.4 µM
CC1CC2C3CC(F)C4=CC(=O)C=CC4(C)C3(F)C(O)CC2(C)C1(O)C(=O)COC(=O)C(C)(C)C (centres undefined) | 75.7 µM (inactive) | 27.5 µM (inactive) | > 100 µM (inactive) | > 100 µM (inactive) | 66.2 µM (inactive) | > 100 µM (inactive) | > 100 µM (inactive) | > 100 µM (inactive) | 61.7 µM (inactive) | > 100 µM (inactive) | 44.4 µM (inactive) | > 100 µM (inactive) | > 100 µM (inactive) | – | > 100 µM (inactive) | > 100 µM (inactive) | 64.3 µM (inactive) | 64.1 µM (inactive) | > 100 µM (inactive) | > 100 µM
O=C1C[C@H](c2ccccc2)C2(C(=O)c3ccccc3C2=O)[C@@H](c2ccccc2)C1 | 38.5 µM (inactive) | – | – | 26.9 µM (inactive) | 8.87 µM (inactive) | 73.1 µM (inactive) | – | – | 25.6 µM (inactive) | 11.8 µM (inactive) | > 100 µM (inactive) | 42.2 µM (inactive) | 16.9 µM (inactive) | 35.6 µM (inactive) | – | 31.5 µM (inactive) | 23.9 µM (inactive) | 16.3 µM (inactive) | 24.9 µM (inactive) | 25.3 µM
CCC1C[N+]23CCc4c([nH]c5ccccc45)C2CC1CC3 (centres undefined) | > 100 µM (inactive) | – | 76 µM (inactive) | 55.5 µM (inactive) | 29.8 µM (inactive) | – | > 100 µM (inactive) | 52.5 µM (inactive) | > 100 µM (inactive) | > 100 µM (inactive) | 38.8 µM (inactive) | > 100 µM (inactive) | 22.4 µM (inactive) | 81.3 µM (inactive) | > 100 µM (inactive) | 98.6 µM (inactive) | – | 91.6 µM (inactive) | 45.9 µM (inactive) | 68.2 µM
O=C(O)c1cccc2cccc(-c3c4ccc(=O)cc-4oc4cc(O)ccc34)c12 | 16.4 µM (inactive) | – | – | 21.3 µM (inactive) | 27.3 µM (inactive) | 62.7 µM (inactive) | 49.7 µM (inactive) | – | 34.8 µM (inactive) | > 100 µM (inactive) | 32.6 µM (inactive) | > 100 µM (inactive) | > 100 µM (inactive) | > 100 µM (inactive) | > 100 µM (inactive) | > 100 µM (inactive) | > 100 µM (inactive) | 75 µM (inactive) | – | > 100 µM
